Among the data in patent publication US11739078B2, “Methods of inhibiting kinases” (INSILICO MEDICINE IP LIMITED, priority 2019, dated 2023) are IC50 values, retold here.

Like-named read-outs stand apart in the source and are kept apart here.

In one assay the target is TNIK (Homo sapiens (Human), UniProt Q9UKE5). Nature of the assay: TNIK enzymatic assay (radiometric kinase inhibition). Type of assay: biochemical. The method, then:
The compounds were studied for function as TNIK inhibitors to generate the data of Table 1. […] (specific activity and concentration as required). The reaction is initiated by the addition of the Mg/ATP mix. After incubation for 40 minutes at room temperature, the reaction is stopped by the addition of phosphoric acid to a concentration of 0.5%.

The target in the next assay is MAP4K4 (h) (Homo sapiens (Human), UniProt O95819). The assay can be described thus: MAP4K4 in vitro kinase assay (radiometric). Format: biochemical. As to conditions: read-out: MAP4K4_IC50. The method, then:
(specific activity and concentration as required). The reaction is initiated by the addition of the Mg/ATP mix. After incubation for 40 minutes at room temperature, the reaction is stopped by the addition of phosphoric acid to a concentration of 0.5%.

[1] abbreviates: TNIK enzymatic assay, Table 1, read-out: IC50.

MAP4K4 (h), sequence (O95819 whole entry): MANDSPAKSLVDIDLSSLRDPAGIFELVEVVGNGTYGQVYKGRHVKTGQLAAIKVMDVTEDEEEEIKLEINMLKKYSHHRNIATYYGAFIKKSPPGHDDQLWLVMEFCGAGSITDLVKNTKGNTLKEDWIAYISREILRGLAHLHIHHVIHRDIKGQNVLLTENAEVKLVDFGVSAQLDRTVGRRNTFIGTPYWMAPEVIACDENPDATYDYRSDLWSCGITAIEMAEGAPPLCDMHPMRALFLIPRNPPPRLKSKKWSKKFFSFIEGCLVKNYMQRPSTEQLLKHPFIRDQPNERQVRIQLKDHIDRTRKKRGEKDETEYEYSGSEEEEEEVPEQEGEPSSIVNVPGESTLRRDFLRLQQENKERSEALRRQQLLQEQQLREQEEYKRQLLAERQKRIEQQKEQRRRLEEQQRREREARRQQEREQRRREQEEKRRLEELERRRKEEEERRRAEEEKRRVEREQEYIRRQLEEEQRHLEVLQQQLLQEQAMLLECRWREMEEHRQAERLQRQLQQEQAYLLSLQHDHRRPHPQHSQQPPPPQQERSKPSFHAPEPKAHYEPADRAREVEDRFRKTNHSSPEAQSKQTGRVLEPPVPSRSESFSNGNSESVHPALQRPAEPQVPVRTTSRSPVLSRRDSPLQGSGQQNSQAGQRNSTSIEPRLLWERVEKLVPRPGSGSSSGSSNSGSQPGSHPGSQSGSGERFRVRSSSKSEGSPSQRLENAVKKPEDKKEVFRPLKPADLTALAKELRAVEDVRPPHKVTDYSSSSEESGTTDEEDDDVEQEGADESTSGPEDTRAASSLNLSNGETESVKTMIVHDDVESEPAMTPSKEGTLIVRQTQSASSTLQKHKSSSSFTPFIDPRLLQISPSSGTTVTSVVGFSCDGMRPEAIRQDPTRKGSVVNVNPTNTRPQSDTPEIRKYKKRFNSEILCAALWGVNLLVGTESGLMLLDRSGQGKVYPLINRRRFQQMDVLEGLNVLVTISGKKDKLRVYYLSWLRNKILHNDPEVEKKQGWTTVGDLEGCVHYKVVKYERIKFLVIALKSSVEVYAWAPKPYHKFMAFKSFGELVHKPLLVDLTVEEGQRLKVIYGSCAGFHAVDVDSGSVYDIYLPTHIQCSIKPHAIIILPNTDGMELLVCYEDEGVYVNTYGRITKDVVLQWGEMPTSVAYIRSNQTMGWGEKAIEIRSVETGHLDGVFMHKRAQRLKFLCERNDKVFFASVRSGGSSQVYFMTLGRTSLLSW
TNIK, sequence (Q9UKE5 whole entry): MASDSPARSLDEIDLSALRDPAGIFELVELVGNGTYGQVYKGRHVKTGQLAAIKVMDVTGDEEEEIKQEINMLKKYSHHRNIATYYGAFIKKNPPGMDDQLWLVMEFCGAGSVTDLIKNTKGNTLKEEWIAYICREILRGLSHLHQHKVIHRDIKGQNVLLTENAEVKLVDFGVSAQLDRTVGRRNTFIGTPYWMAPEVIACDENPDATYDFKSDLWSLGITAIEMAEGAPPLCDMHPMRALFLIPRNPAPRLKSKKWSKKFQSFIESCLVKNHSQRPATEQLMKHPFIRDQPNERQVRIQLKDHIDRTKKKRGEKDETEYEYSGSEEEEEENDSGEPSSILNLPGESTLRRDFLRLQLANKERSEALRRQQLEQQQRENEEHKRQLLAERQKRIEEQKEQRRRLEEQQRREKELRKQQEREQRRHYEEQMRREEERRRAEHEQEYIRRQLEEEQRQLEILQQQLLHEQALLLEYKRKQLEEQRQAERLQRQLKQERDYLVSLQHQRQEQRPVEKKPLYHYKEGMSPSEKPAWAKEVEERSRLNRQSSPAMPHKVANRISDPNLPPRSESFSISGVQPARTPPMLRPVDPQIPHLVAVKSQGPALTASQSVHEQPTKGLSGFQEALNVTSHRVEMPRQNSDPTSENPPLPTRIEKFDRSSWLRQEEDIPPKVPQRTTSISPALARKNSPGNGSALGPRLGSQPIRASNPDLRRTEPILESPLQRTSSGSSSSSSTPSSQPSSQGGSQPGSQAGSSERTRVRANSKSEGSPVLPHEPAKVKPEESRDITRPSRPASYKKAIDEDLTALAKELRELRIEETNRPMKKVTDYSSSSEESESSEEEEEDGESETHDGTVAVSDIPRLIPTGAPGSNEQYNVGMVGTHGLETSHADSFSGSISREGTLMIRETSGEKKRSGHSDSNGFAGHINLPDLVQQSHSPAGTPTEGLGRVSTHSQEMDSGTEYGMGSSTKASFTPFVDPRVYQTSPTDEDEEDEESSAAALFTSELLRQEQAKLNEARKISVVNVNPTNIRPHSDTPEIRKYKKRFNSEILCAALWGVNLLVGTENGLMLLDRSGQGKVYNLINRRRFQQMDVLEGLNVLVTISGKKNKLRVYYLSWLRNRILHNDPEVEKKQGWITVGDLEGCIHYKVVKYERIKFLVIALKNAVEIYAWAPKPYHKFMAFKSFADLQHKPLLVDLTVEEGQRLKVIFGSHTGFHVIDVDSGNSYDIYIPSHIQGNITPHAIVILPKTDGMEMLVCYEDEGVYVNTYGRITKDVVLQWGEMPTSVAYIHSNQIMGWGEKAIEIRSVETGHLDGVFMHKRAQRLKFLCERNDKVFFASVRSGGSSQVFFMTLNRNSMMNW

For `COc1ccccc1NC(=O)c1ccc(-c2c(-c3ccc(F)cc3)ncn2C2CCCCC2)o1` [Compound 79, 5-(1-cyclohexyl-4-(4-fluorophenyl)-1H-imidazol-5-yl)-N-(2-methoxyphenyl)furan-2-carboxamide], the IC50 stood at 16 nM at TNIK (setting [1]), 16 nM on TNIK (read-out: TNIK_IC50) and 22.2 nM on MAP4K4 (h).

For the molecule `O=C(Nc1ccccc1F)c1ccc(-c2c(-c3ccc(F)cc3)ncn2CC2CCCN2)o1` (stereo not drawn) [Compound 88, N-(2-fluorophenyl)-5-(4-(4-fluorophenyl)-1-(pyrrolidin-2-ylmethyl)-1H-imidazol-5-yl)furan-2-carboxamide], the IC50 at TNIK (setting [1]) worked out at 8450 nM; at TNIK (read-out: TNIK_IC50) it was 8450 nM; at MAP4K4 (h), 12400 nM.

For the molecule `O=C(Nc1ccccc1F)c1ccc(-c2c(-c3cncnc3)ncn2C2CCCC2)o1` [Compound 94, 5-(1-cyclopentyl-4-(pyrimidin-5-yl)-1H-imidazol-5-yl)-N-(2-fluorophenyl)furan-2-carboxamide], the IC50 on TNIK (read-out: TNIK_IC50) and on MAP4K4 (h) was more than 10000 nM throughout.

Take `O=C(Nc1ccc(-c2c(-c3ccc(F)cc3)ncn2C2CCCC2)o1)c1ccccc1F` [Compound 95, N-(5-(1-cyclopentyl-4-(4-fluorophenyl)-1H-imidazol-5-yl)furan-2-yl)-2-fluorobenzamide]: the IC50 was found to be 480 nM on TNIK (read-out: TNIK_IC50) and 547 nM on MAP4K4 (h).

On to `O=C(Nc1ccncc1F)c1ccc(-c2c(-c3ccc(F)cc3)ncn2CC2CCOC2)o1` (stereo not drawn) [Compound A-36, 5-(4-(4-fluorophenyl)-1-((tetrahydrofuran-3-yl)methyl)-1H-imidazol-5-yl)-N-(3-fluoropyridin-4-yl)furan-2-carboxamide], for which the IC50 at TNIK (read-out: TNIK_IC50) stood at 83.2 nM; on MAP4K4 (h) it was 161 nM.

Turning to `COc1cnccc1NC(=O)c1ccc(-c2c(-c3ccc(F)cc3)ncn2CC2CCOC2)o1` (stereo not drawn) [Compound A-37, 5-(4-(4-fluorophenyl)-1-((tetrahydrofuran-3-yl)methyl)-1H-imidazol-5-yl)-N-(3-methoxypyridin-4-yl)furan-2-carboxamide], the figures for the IC50 on TNIK (read-out: TNIK_IC50) and on MAP4K4 (h) were 26.4 nM and 50.3 nM, respectively.

For `COc1cnccc1NC(=O)c1ccc(-c2c(-c3ccc(F)cc3)ncn2C2CCOC2)o1` (stereo not drawn) [Compound A-38, 5-(4-(4-fluorophenyl)-1-(tetrahydrofuran-3-yl)-1H-imidazol-5-yl)-N-(3-methoxypyridin-4-yl)furan-2-carboxamide], the IC50 was 4.21 nM on TNIK (read-out: TNIK_IC50) and less than 10 nM on MAP4K4 (h).

For `O=C(Nc1ccncn1)c1ccc(-c2c(-c3ccc(F)cc3)ncn2C2COCC2(F)F)o1` (stereo not drawn) [Compound A-40, 5-(1-(4,4-difluorotetrahydrofuran-3-yl)-4-(4-fluorophenyl)-1H-imidazol-5-yl)-N-(pyrimidin-4-yl)furan-2-carboxamide], the IC50 at TNIK (read-out: TNIK_IC50) stood at 26.3 nM; at MAP4K4 (h) it was 50.5 nM.

As to `O=C(Nc1c(O)cncc1F)c1ccc(-c2c(-c3ccc(F)cc3)ncn2C2COCC2(F)F)o1` (stereo not drawn) [Compound A-41, 5-(1-(4,4-difluorotetrahydrofuran-3-yl)-4-(4-fluorophenyl)-1H-imidazol-5-yl)-N-(3-fluoro-5-hydroxypyridin-4-yl)furan-2-carboxamide], the IC50 is 317 nM at TNIK (read-out: TNIK_IC50) and more than 1000 nM at MAP4K4 (h).

As to `O=C(Nc1cc[nH]c(=O)c1)c1ccc(-c2c(-c3ccc(F)cc3)ncn2C2COCC2(F)F)o1` (stereo not drawn) [Compound A-42, 5-(1-(4,4-difluorotetrahydrofuran-3-yl)-4-(4-fluorophenyl)-1H-imidazol-5-yl)-N-(2-oxo-1,2-dihydropyridin-4-yl)furan-2-carboxamide], the figures for the IC50 at TNIK (read-out: TNIK_IC50) and at MAP4K4 (h) were 124 nM and 231 nM, respectively.

In the case of `Cc1cc(NC(=O)c2ccc(-c3c(-c4ccc(F)cc4)ncn3C3COC3)o2)c(F)cn1` [Compound A-48, N-(5-fluoro-2-methylpyridin-4-yl)-5-(4-(4-fluorophenyl)-1-(oxetan-3-yl)-1H-imidazol-5-yl)furan-2-carboxamide], the IC50 on TNIK (read-out: TNIK_IC50) turned out to be 49.9 nM; at MAP4K4 (h) it was 194 nM.
